Measured values taken from ChEMBL document CHEMBL1770095, “Discovery of histone deacetylase 8 selective inhibitors” (Bioorg Med Chem Lett, 2011).

Columns and labels:
[1] = molecular target: Histone deacetylase 3/Nuclear receptor corepressor 2 (HDAC3/NCoR2) (Homo sapiens, UniProt O15379); assay: Inhibition of full length HDAC3/NCoR2 assessed as 7-amino-4-methylcoumarin release from fluorophore conjugated substrate after 5 mins by fluorescence assay; type: protein-complex assay
[2] = molecular target: T1, Histone deacetylase 8 (Homo sapiens, UniProt Q9BY41); assay: Inhibition of full length HDAC8 assessed as 7-amino-4-methylcoumarin release from fluorophore conjugated substrate after 5 mins by fluorescence assay
T1 sequence (Q9BY41 whole entry): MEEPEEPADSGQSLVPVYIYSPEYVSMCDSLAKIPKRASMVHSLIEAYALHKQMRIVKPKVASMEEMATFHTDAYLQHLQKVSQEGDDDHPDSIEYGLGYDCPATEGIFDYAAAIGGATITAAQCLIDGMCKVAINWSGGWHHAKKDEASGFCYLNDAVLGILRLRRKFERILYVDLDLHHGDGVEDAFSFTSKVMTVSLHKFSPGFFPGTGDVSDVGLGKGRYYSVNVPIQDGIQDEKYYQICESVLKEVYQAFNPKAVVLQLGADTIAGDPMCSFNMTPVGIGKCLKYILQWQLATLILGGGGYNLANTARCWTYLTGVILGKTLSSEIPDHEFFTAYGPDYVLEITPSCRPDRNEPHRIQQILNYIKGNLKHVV

[3] = molecular target: Histone deacetylase 2 (Homo sapiens, UniProt Q92769); assay: Inhibition of full length HDAC2 assessed as 7-amino-4-methylcoumarin release from fluorophore conjugated substrate after 5 mins by fluorescence assay
Histone deacetylase 2, sequence (Q92769 whole entry): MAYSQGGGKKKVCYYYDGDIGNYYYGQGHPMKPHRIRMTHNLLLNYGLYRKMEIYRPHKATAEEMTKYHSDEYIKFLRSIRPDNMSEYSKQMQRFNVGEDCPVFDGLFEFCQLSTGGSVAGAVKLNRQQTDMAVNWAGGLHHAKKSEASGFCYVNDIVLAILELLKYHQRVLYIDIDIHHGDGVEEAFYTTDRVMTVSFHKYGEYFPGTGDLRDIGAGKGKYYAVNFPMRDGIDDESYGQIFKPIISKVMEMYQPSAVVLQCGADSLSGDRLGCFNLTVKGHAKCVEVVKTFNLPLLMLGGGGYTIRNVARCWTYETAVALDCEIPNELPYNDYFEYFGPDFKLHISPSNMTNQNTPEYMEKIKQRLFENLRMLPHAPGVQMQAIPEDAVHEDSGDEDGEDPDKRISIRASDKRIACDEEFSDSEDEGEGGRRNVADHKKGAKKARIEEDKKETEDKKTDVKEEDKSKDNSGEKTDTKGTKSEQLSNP

Histone deacetylase 3/Nuclear receptor corepressor 2 (HDAC3/NCoR2), sequence (O15379 whole entry): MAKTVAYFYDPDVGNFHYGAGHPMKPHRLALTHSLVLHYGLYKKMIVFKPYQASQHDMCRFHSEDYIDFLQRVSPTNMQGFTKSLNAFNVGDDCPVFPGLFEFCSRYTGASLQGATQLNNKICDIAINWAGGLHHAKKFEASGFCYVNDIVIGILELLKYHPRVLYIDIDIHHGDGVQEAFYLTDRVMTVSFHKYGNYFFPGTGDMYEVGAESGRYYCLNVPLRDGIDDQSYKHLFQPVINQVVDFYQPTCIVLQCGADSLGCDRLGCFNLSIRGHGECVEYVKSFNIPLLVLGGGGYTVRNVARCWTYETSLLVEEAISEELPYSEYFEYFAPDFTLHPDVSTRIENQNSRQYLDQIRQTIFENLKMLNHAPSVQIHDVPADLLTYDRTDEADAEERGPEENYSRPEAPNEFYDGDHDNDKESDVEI
Histone deacetylase 3/Nuclear receptor corepressor 2 (HDAC3/NCoR2), sequence (Q9Y618 whole entry, further chain): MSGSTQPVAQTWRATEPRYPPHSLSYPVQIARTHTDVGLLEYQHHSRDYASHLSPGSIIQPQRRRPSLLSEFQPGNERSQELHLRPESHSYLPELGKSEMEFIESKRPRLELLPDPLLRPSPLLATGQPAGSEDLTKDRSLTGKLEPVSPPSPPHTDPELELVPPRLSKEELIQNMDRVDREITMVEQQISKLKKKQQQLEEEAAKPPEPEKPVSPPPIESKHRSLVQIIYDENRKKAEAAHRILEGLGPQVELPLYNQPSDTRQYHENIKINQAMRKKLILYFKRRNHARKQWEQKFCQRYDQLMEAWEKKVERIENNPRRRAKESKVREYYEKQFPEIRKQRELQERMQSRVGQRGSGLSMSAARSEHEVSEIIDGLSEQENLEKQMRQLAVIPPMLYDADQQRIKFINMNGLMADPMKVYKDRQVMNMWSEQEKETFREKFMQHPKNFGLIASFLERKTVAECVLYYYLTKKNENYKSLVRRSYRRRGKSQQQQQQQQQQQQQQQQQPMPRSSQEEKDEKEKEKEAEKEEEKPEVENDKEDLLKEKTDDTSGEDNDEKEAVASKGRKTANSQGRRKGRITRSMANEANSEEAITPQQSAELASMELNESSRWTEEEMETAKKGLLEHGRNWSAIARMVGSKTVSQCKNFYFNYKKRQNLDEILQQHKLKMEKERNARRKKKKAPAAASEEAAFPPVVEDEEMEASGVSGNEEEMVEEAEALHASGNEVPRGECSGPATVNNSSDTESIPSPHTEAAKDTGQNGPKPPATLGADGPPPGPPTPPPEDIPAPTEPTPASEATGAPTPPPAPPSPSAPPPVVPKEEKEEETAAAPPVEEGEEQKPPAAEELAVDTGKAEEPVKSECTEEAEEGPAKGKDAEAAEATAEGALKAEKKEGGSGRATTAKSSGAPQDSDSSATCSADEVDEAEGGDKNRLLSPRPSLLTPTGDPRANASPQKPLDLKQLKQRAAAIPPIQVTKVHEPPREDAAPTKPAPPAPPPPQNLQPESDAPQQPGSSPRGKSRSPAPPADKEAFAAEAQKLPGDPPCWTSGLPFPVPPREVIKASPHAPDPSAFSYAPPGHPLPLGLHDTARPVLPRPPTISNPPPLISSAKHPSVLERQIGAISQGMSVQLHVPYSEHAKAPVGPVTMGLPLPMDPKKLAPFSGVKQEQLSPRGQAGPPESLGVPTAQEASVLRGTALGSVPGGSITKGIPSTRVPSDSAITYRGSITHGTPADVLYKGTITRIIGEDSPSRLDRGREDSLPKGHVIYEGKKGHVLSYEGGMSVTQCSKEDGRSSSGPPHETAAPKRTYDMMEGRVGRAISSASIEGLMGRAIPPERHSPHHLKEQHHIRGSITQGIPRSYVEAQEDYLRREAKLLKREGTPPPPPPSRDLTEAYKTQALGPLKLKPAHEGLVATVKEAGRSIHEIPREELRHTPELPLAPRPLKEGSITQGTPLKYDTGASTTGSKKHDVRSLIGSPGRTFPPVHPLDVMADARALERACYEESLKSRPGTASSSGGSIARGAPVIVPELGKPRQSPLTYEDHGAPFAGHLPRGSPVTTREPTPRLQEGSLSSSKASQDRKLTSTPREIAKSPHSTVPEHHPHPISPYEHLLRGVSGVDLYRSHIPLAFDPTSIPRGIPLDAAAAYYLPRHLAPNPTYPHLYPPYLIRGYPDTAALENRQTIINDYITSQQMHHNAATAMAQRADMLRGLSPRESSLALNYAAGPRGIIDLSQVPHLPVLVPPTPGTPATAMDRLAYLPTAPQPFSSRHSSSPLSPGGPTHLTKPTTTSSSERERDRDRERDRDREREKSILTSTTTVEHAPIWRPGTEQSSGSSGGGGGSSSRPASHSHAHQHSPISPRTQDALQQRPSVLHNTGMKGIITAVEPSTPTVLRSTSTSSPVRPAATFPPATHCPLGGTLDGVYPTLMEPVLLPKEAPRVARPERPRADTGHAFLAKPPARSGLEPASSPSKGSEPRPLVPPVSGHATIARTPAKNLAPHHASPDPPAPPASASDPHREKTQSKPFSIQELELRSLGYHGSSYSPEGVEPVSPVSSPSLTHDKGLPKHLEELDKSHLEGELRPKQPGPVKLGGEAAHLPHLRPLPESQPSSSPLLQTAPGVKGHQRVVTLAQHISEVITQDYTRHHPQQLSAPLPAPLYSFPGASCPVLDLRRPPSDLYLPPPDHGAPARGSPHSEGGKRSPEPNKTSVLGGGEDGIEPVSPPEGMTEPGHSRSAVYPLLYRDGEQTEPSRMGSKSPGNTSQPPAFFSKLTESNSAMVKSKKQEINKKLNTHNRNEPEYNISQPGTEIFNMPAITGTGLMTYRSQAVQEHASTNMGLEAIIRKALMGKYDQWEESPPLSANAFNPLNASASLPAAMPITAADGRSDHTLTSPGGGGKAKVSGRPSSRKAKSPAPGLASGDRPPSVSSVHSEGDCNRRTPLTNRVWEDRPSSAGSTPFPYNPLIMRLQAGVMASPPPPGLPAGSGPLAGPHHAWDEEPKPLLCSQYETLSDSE

SMILES | IC50 [1] [µM] | IC50 [2] [µM] | IC50 [3] [µM]
O=C(NO)c1cccc(C(=O)N/N=C/c2ccccc2)c1 | 18 | 0.052 | 20
C#CCOc1ccc(/C=N/NC(=O)CCCCCCC(=O)NO)cc1 | 0.0031 | 0.29 | 0.0021
C#CCOc1ccc(/C=N/NC(=O)c2cccc(C(=O)NO)c2)cc1 | 6.2 | 0.029 | 6.3
O=C1CC/C=C/CCC(=O)N(Cc2cccc(/C=N/NC(=O)c3cccc(C(=O)NO)c3)c2)C[C@@H](c2ccccc2)O1 | 15 | 0.023 | 3.6
O=C1CC/C=C/CCC(=O)N(Cc2cccc(/C=N/NC(=O)c3cccc(C(=O)NO)c3)c2)C[C@H](c2ccccc2)O1 | 15 | 0.11 | 5
